From patent publication US20090105251A1, “Renin inhibitors” (priority 2007, published 2009)

The compounds below were run against T1, Recombinant human renin (Homo sapiens, UniProt P00797) (assay: In vitro enzymatic activity assay of renin inhibitors (fluorogenic peptide substrate)). Conditions: recombinant human renin 3 nM, 1 μM substrate QXL520/HiLyteFluo488 peptide, pH 7.4, 37° C., fluorescence; values given as ranges; read-out: IC50 of Exemplified Compounds Against Renin, IC50.
T1 construct: isolate the active form (residues 67-406); made in house
T1 sequence (P00797 67-406): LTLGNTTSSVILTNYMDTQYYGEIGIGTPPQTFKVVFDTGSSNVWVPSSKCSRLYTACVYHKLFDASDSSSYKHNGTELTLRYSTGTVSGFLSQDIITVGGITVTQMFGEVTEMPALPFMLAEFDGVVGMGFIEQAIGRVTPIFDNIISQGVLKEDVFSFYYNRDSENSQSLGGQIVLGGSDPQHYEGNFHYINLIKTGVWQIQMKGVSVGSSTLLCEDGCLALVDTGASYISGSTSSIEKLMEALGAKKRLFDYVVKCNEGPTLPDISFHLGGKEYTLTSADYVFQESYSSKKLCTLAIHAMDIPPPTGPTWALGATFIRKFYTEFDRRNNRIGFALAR
Assay type: biochemical
Text: Test compounds in varying concentrations may be reacted with recombinant human renin in the presence of substrate, e.g., QXL520-γ-Abu-Ile-His-Pro-Phe-His-Leu-Val-Ile-His-Thr-Lys (HiLyteFluo488)-Arg-OH (Anaspec, San Jose, Calif.). The reaction can be followed kinetically using fluorescence (excitation λ=485 nm; emission λ=538 nm). Inhibition constants (IC50) may be calculated by non-linear curve fitting of the compound concentrations and fluorescence intensities to the standard IC50 equation.
Solutions of test compounds in varying concentrations (≦2 mM final concentration) are prepared in dimethyl sulfoxide (DMSO) and then diluted into assay buffer comprising 50 mM Hepes, 1 mM EDTA, 1 mM DTT, 0.1 mg/ml BSA, 0.01% Brij35, pH 7.4. Alternatively, the assay can be performed with a high BSA concentration, wherein the buffer contains an additional 2% BSA.
Recombinant human renin (3 nM final concentration) is added to the dilutions and pre-incubated with the compounds for 10 minutes at 37° C. As described in Examples A-C above, human renin can be obtained by expressing preprorenin (residue 1-406) in mammalian cells, treating the prorenin (residues 24-406) contained in the culture supernatant with trypsin, and isolate the active form (residues 67-406). After pre-incubation, the reaction is initiated with 1 μM of substrate QXL520-γ-Abu-Ile-His-Pro-Phe-His-Leu-Val-Ile-His-Thr-Lys (HiLyteFluo488)-Arg-OH (Anaspec, San Jose, Calif.). The final DMSO in the assay is 5%. The total volume of the reaction mixture is 20 μL, which can be placed on Greiner 384-well small volume plates.
Renin activity may be determined via fluorescence (excitation λ=485 nm; emission λ=538 nm), e.g., on a Molecular Devices SPECTROmax GEMINI XPS. The fluorescence intensity is determined upon the addition of substrate and determined again after incubation at 37° C. for one hour. The fluorescence intensity of a blank (no inhibition) using vehicle alone is also determined. Renin activity is linearly proportional to the change in fluorescence observed (final−initial).
The percent inhibition of renin at a given compound concentration is defined as:
100%×[1−(Fcompound/Fblank)]
where Fcompound is the observed fluorescence at a given concentration of test compound and Fblank is the observed fluorescence in the presence of vehicle alone.
The pIC50 value (negative log of the molar concentration of the compound that produces 50% inhibition) of a test compound is calculated by non-linear least squares curve fitting of the equation:
Percent Inhibition=100%/(1+(10^−pIC50/10^log [I]))
to percent inhibition versus compound concentration. The 50% inhibitory concentration (IC50) of a test compound is calculated by raising 10 to the negative pIC50 (10^−pIC50).

Row | SMILES | IC50 [nM]
1 | O=C(c1c(-c2ccccc2Cl)noc1C1CC1)N1CCNC[C@H]1Cc1ccccc1 [Example 33, ((R)-2-benzylpiperazin-1-yl)(3-(2-chlorophenyl)-5-cyclopropylisoxazol-4-yl)methanone] | 1000 to 50000
2 | Cc1cc2cc(C(=O)N3CCNC[C@H]3Cc3ccccc3)n(Cc3ccccc3)c2s1 [Example 34, (R)-(6-benzyl-2-methyl-6H-thieno[2,3-b]pyrrol-5-yl)(2-benzylpiperazin-1-yl)methanone] | 1000 to 50000
3 | CC1(C)Cc2cccc(C(=O)N3CCNC[C@H]3Cc3ccccc3)c2O1 [Example 35, (R)-(2-benzylpiperazin-1-yl)(2,2-dimethyl-2,3-dihydrobenzofuran-7-yl)methanone] | 1000 to 50000
4 | O=C(c1cc(-c2ccc(Cl)cc2)cs1)N1CCNC[C@H]1Cc1ccccc1 [Example 36, (R)-(2-benzylpiperazin-1-yl)(4-(4-chlorophenyl)thiophen-2-yl)methanone] | 1000 to 50000
5 | Cc1oc(-c2ccccc2)nc1Cn1nc(C(=O)N2CCNC[C@H]2Cc2ccccc2)c2ccccc21 [Example 37, (R)-(2-benzylpiperazin-1-yl)(1-((5-methyl-2-phenyloxazol-4-yl)methyl)-1H-indazol-3-yl)methanone] | 1000 to 50000
6 | CC(C)(C)n1ncc(C(=O)N2CCNC[C@H]2Cc2ccccc2)c1-c1ccccc1 [Example 38, (R)-(2-benzylpiperazin-1-yl)(1-tert-butyl-5-phenyl-1H-pyrazol-4-yl)methanone] | 1000 to 50000
7 | CC(=O)NCCc1ccccc1Oc1ccccc1-c1ccsc1C(=O)N1CCNC[C@H]1Cc1ccccc1 [Example 39, N-(2-(2-(2-((R)-2-benzylpiperazine-1-carbonyl)thiophen-3-yl)phenoxy)phenethyl)acetamide] | < 1000
8 | CC(=O)NCc1cccnc1Oc1ccccc1-c1ccsc1C(=O)N1CCNC[C@H]1Cc1ccccc1 [Example 40, N-((2-(2-(2-((R)-2-benzylpiperazine-1-carbonyl)thiophen-3-yl)phenoxy)pyridin-3-yl)methyl)acetamide] | 1000 to 50000

Now from value to compound:

Row | IC50 [nM] | SMILES
9 | 1000 to 50000 | O=C(c1ccsc1-c1ccccc1CN1CCOCC1)N1CCNC[C@H]1Cc1ccccc1 [Example 41, ((R)-2-benzylpiperazin-1-yl)(2-(2-(morpholinomethyl)phenyl)-thiophen-3-yl)methanone]
10 | 1000 to 50000 | O=C(c1cccn1-c1ccccc1Oc1ccccc1)N1CCNC[C@H]1Cc1ccccc1 [Example 42, ((R)-2-benzylpiperazin-1-yl)(1-(2-phenoxyphenyl)-1H-pyrrol-2-yl)methanone]
11 | 1000 to 50000 | O=C(c1cc(-c2ccccc2Oc2ccccc2)cs1)N1CCNC[C@H]1Cc1ccccc1 [Example 43, (R)-(2-benzylpiperazin-1-yl)(4-(2-phenoxyphenyl)thiophen-2-yl)methanone]
12 | 1000 to 50000 | O=C(c1ccc(-c2ccccc2Oc2ccccc2)s1)N1CCNC[C@H]1Cc1ccccc1 [Example 44, (R)-(2-benzylpiperazin-1-yl)(5-(2-phenoxyphenyl)thiophen-2-yl)methanone]
13 | 1000 to 50000 | O=C(c1ccc(-c2ccccc2Oc2ccccc2)o1)N1CCNC[C@H]1Cc1ccccc1 [Example 45, (R)-(2-benzylpiperazin-1-yl)(5-(2-phenoxyphenyl)furan-2-yl)methanone]
14 | 1000 to 50000 | O=C(c1nnc(-c2ccccc2-c2ccccc2)o1)N1CCNC[C@H]1Cc1ccccc1 [Example 46, (R)-(2-benzylpiperazin-1-yl)(5-(biphenyl-2-yl)-1,3,4-oxadiazol-2-yl)methanone]
